Laboratory results taken from ChEMBL document CHEMBL1201862, “PubChem BioAssay data set” (2004).
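Test compounds were applied to cells in 96-well plates for 48 hours at 5 doses. At the GI50, growth is halved.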 The source made the active and inactive calls. No stated cut-off is given here; in the data, active = GI50 up to about 1.1 µM and inactive = higher.

How the values were obtained:
Experiment in all cases: growth of human tumour cells (NCI), 48 h
SK-MEL-2 = tested on: SK-MEL-2
HOP-62 = tested on: HOP-62
MDA-MB-231 = tested on: MDA-MB-231
IGROV-1 = tested on: IGROV-1
SR = tested on: SR
MOLT-4 = tested on: MOLT-4
HOP-92 = tested on: HOP-92
OVCAR-5 = tested on: OVCAR-5
COLO 205 = tested on: COLO 205
786-0 = tested on: 786-0
HT-29 = tested on: HT-29
A549 = tested on: A549
ACHN = tested on: ACHN
HCT-15 = tested on: HCT-15
LOX IMVI = tested on: LOX IMVI
OVCAR-8 = tested on: OVCAR-8
DU-145 = tested on: DU-145
PC-3 = tested on: PC-3
UACC-62 = tested on: UACC-62
NCI-H460 = tested on: NCI-H460
U-251 = tested on: U-251
UO-31 = tested on: UO-31
SN12C = tested on: SN12C
NCI-H23 = tested on: NCI-H23
K562 = tested on: K562
A498 = tested on: A498
SNB-19 = tested on: SNB-19
OVCAR-3 = tested on: OVCAR-3
HL-60 = tested on: HL-60
NCI-H522 = tested on: NCI-H522
HCT-116 = tested on: HCT-116
MDA-N = tested on: MDA-N
BT-549 = tested on: BT-549
M14 = tested on: M14
NCI-H226 = tested on: NCI-H226
KM12 = tested on: KM12
RXF 393 = tested on: RXF 393
SF-268 = tested on: SF-268
Hs-578T = tested on: Hs-578T
SW-620 = tested on: SW-620
MCF7 = tested on: MCF7
NCI/ADR-RES = tested on: NCI/ADR-RES
RPMI-8226 = tested on: RPMI-8226
TK-10 = tested on: TK-10
T47D = tested on: T47D
CAKI-1 = tested on: CAKI-1
UACC-257 = tested on: UACC-257
MDA-MB-435 = tested on: MDA-MB-435
SK-MEL-28 = tested on: SK-MEL-28
SK-MEL-5 = tested on: SK-MEL-5
SF-539 = tested on: SF-539
OVCAR-4 = tested on: OVCAR-4
SF-295 = tested on: SF-295
SK-OV-3 = tested on: SK-OV-3
EKVX = tested on: EKVX
Malme-3M = tested on: Malme-3M
CCRF-CEM = tested on: CCRF-CEM
HCC 2998 = tested on: HCC 2998
SNB-75 = tested on: SNB-75

For `NCCC(N)C(=O)O` (stereo not given), the GI50 (SK-MEL-2) was > 100 µM (inactive), the GI50 (HOP-62) was > 100 µM (inactive) and the GI50 (MDA-MB-231) was > 100 µM (inactive). The GI50 (IGROV-1) was > 100 µM (inactive), the GI50 (SR) was > 100 µM (inactive) and the GI50 (MOLT-4) was > 100 µM (inactive). For the same compound, the GI50 (HOP-92) was > 100 µM (inactive), the GI50 (OVCAR-5) was > 100 µM (inactive) and the GI50 (COLO 205) was > 100 µM (inactive). For the same compound, the GI50 (786-0) was > 100 µM (inactive), the GI50 (HT-29) was > 100 µM (inactive) and the GI50 (A549) was > 100 µM (inactive). The GI50 (ACHN) was > 100 µM (inactive), the GI50 (HCT-15) was greater than 100 µM and the GI50 (LOX IMVI) was > 100 µM (inactive). For the same compound, the GI50 (OVCAR-8) was > 100 µM (inactive), the GI50 (DU-145) was > 100 µM (inactive) and the GI50 (PC-3) was > 100 µM (inactive). For the same compound, the GI50 (UACC-62) was > 100 µM (inactive), the GI50 (NCI-H460) was > 100 µM (inactive) and the GI50 (U-251) was > 100 µM (inactive). For the same compound, the GI50 (UO-31) was > 100 µM (inactive), the GI50 (SN12C) was > 100 µM (inactive) and the GI50 (NCI-H23) was > 100 µM (inactive). The GI50 (K562) was > 100 µM (inactive), the GI50 (A498) was > 100 µM (inactive) and the GI50 (SNB-19) was > 100 µM (inactive). For the same compound, the GI50 (OVCAR-3) was > 100 µM (inactive), the GI50 (HL-60) was > 100 µM (inactive) and the GI50 (NCI-H522) was > 100 µM (inactive). For the same compound, the GI50 (HCT-116) was > 100 µM (inactive), the GI50 (MDA-N) was > 100 µM (inactive) and the GI50 (BT-549) was > 100 µM (inactive). The GI50 (M14) was > 100 µM (inactive), the GI50 (NCI-H226) was > 100 µM (inactive) and the GI50 (KM12) was > 100 µM (inactive). The GI50 (RXF 393) was > 100 µM (inactive), the GI50 (SF-268) was > 100 µM (inactive) and the GI50 (Hs-578T) was > 100 µM (inactive). The GI50 (SW-620) was > 100 µM (inactive), the GI50 (MCF7) was > 100 µM (inactive) and the GI50 (NCI/ADR-RES) was > 100 µM (inactive). For the same compound, the GI50 (RPMI-8226) was > 100 µM (inactive), the GI50 (TK-10) was > 100 µM (inactive) and the GI50 (T47D) was > 100 µM (inactive). The GI50 (CAKI-1) was > 100 µM (inactive), the GI50 (UACC-257) was > 100 µM (inactive) and the GI50 (MDA-MB-435) was > 100 µM (inactive). The GI50 (SK-MEL-28) was > 100 µM (inactive), the GI50 (SK-MEL-5) was > 100 µM (inactive) and the GI50 (SF-539) was > 100 µM (inactive). The GI50 (OVCAR-4) was > 100 µM (inactive), the GI50 (SF-295) was > 100 µM (inactive) and the GI50 (SK-OV-3) was > 100 µM (inactive). For the same compound, the GI50 (EKVX) was > 100 µM (inactive), the GI50 (Malme-3M) was > 100 µM (inactive) and the GI50 (CCRF-CEM) was > 100 µM (inactive).
`O=c1c2ccccc2nc2n1NC(c1c(Cl)cccc1Cl)N2c1cccc(Cl)c1` (stereo not given) was tested, and the GI50 (SK-MEL-2) was 39.1 µM (inactive), the GI50 (HOP-62) was 8.38 µM (inactive) and the GI50 (MDA-MB-231) was 2.79 µM (inactive). For the same compound, the GI50 (IGROV-1) was 3.34 µM (inactive), the GI50 (SR) was 8.55 µM (inactive) and the GI50 (MOLT-4) was > 100 µM (inactive). The GI50 (HOP-92) was 4.52 µM (inactive), the GI50 (OVCAR-5) was 4.54 µM (inactive) and the GI50 (COLO 205) was 8.53 µM (inactive). For the same compound, the GI50 (786-0) was 2.1 µM (inactive), the GI50 (HT-29) was 6.73 µM (inactive) and the GI50 (A549) was 5.2 µM (inactive). For the same compound, the GI50 (ACHN) was 3.1 µM (inactive), the GI50 (HCT-15) was 30.3 µM and the GI50 (LOX IMVI) was 6.79 µM (inactive). The GI50 (OVCAR-8) was 3.26 µM (inactive), the GI50 (DU-145) was 11.4 µM (inactive) and the GI50 (PC-3) was 5.11 µM (inactive). The GI50 (UACC-62) was 5.86 µM (inactive), the GI50 (NCI-H460) was 5.13 µM (inactive) and the GI50 (U-251) was 2.14 µM (inactive). The GI50 (UO-31) was 2.38 µM (inactive), the GI50 (SN12C) was 4.71 µM (inactive) and the GI50 (NCI-H23) was 14.6 µM (inactive). The GI50 (K562) was 54.2 µM (inactive), the GI50 (SNB-19) was 4.43 µM (inactive) and the GI50 (OVCAR-3) was 10.6 µM (inactive). For the same compound, the GI50 (HL-60) was > 100 µM (inactive), the GI50 (NCI-H522) was 10.4 µM (inactive) and the GI50 (HCT-116) was 3.27 µM (inactive). For the same compound, the GI50 (MDA-N) was 5.22 µM (inactive), the GI50 (BT-549) was 51.4 µM (inactive) and the GI50 (M14) was 7.24 µM (inactive). For the same compound, the GI50 (NCI-H226) was 2.56 µM (inactive), the GI50 (KM12) was 7.24 µM (inactive) and the GI50 (RXF 393) was 4.78 µM (inactive). For the same compound, the GI50 (SF-268) was 11.9 µM (inactive), the GI50 (Hs-578T) was 7.55 µM (inactive) and the GI50 (SW-620) was 3.32 µM (inactive). The GI50 (MCF7) was 1.69 µM (inactive), the GI50 (HCC 2998) was 4.42 µM (inactive) and the GI50 (NCI/ADR-RES) was 6.44 µM (inactive). The GI50 (RPMI-8226) was 4.69 µM (inactive), the GI50 (TK-10) was 7.69 µM (inactive) and the GI50 (SNB-75) was 2.64 µM (inactive). For the same compound, the GI50 (T47D) was 5.56 µM (inactive), the GI50 (CAKI-1) was 10.8 µM (inactive) and the GI50 (UACC-257) was 25.2 µM (inactive). The GI50 (MDA-MB-435) was 9.35 µM (inactive), the GI50 (SK-MEL-28) was 12.7 µM (inactive) and the GI50 (SK-MEL-5) was 16.6 µM (inactive). The GI50 (SF-539) was 11.5 µM (inactive), the GI50 (OVCAR-4) was 2.65 µM (inactive) and the GI50 (SF-295) was 9.33 µM (inactive). For the same compound, the GI50 (SK-OV-3) was 2.26 µM (inactive), the GI50 (EKVX) was 6.43 µM (inactive) and the GI50 (Malme-3M) was 8.99 µM (inactive). For the same compound, the GI50 (CCRF-CEM) was > 100 µM (inactive).
